Source: PubChem BioAssay (NCI)
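Values below derive from 48-hour exposures of cells grown in 96-well plates, with endpoints linearly interpolated between the two concentrations bracketing the appropriate inhibition level. The concentration for 50% growth inhibition is given as GI50. TGI: concentration producing complete growth inhibition.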

Key:
Assay in all cases: inhibition of tumour cell growth, NCI panel, 48 h
SN12C renal = system: SN12C renal
SK-MEL-5 melanoma = system: SK-MEL-5 melanoma
NCI/ADR-RES ovarian = system: NCI/ADR-RES ovarian
EKVX NSCLC = system: EKVX NSCLC
UACC-62 melanoma = system: UACC-62 melanoma
COLO 205 colon = system: COLO 205 colon
HT29 colon = system: HT29 colon
IGROV1 ovarian = system: IGROV1 ovarian
NCI-H460 lung = system: NCI-H460 lung
HCT-116 colon = system: HCT-116 colon

Row | SMILES | GI50 (SN12C renal) [µM] | TGI (SN12C renal) [µM] | GI50 (SK-MEL-5 melanoma) [µM] | TGI (SK-MEL-5 melanoma) [µM] | GI50 (NCI/ADR-RES ovarian) [µM] | TGI (NCI/ADR-RES ovarian) [µM] | GI50 (EKVX NSCLC) [µM] | TGI (EKVX NSCLC) [µM] | GI50 (UACC-62 melanoma) [µM] | TGI (UACC-62 melanoma) [µM] | GI50 (COLO 205 colon) [µM] | TGI (COLO 205 colon) [µM] | GI50 (HT29 colon) [µM] | TGI (HT29 colon) [µM] | GI50 (IGROV1 ovarian) [µM] | TGI (IGROV1 ovarian) [µM] | GI50 (NCI-H460 lung) [µM] | TGI (NCI-H460 lung) [µM] | TGI (HCT-116 colon) [µM]
1 | C[C@]12CCc3sc(Nc4ccc(O)cc4)nc3C1=CC[C@@H]1[C@@H]2CC[C@]2(C)C(=O)CC[C@@H]12 | 2.91 | > 100 | 4.33 | 31.9 | 3.27 | > 100 | 10.4 | > 100 | 1.76 | 4.02 | 2 | 3.9 | 2.13 | 5.59 | 1.99 | 5.02 | 3.01 | 10.5 | 
2 | COc1ccc(-c2c3c(nc4nc(SC)nc(SC)c24)CCCC3)cc1OC |  | > 100 |  | > 100 |  |  |  | > 100 |  | > 100 |  | > 100 |  | > 100 |  | > 100 |  | > 100 | > 100
3 | CCc1nnc(-c2nsc3ccccc23)s1 |  | > 100 |  | > 100 |  |  |  | > 100 |  | > 100 |  | > 100 |  | > 100 |  | > 100 |  | > 100 | > 100
4 | CCSc1nc(=[N+]2CCCC2)ss1 |  | > 100 |  | 3.55 |  | > 100 |  | > 100 |  | 23.9 |  | > 49.3 |  | > 92.1 |  | > 90 |  | > 100 | > 86.9
5 | NC(=S)N/N=C1\c2ccccc2CCC1CCC1(O)CCc2ccccc2C1=O (configuration not stated) |  | 39.8 |  | 28.3 |  | 79.1 |  | 59.5 |  | 31.7 |  | 36.7 |  | 45.9 |  | > 100 |  | 32.1 | 40.2
6 | CC(c1ccccc1)/[N+]([O-])=C/c1ccccc1 (configuration not stated) |  |  |  |  |  |  |  | > 100 |  |  |  | > 100 |  | > 100 |  | > 100 |  | > 100 | > 100
7 | O=C(O)CC1OCC=C2CN3CCC45C6=CC(=O)C(=O)C([N+](=O)[O-])=C6NC4C1C2CC35 (configuration not stated) |  | > 100 |  | > 100 |  | > 100 |  | > 100 |  | > 100 |  | > 100 |  | > 100 |  | > 100 |  | > 100 | > 100
8 | C/C(=N\NC(=S)Nc1ccc(C)cc1)c1nc2ncccc2[nH]1 |  | 30.8 |  | 4.73 |  | > 100 |  | 7.27 |  | 15 |  | 17.6 |  | 14.5 |  | 17.3 |  | 13.6 | 14.3
9 | CN1CCN(c2cc(-c3cc4ccccc4o3)oc(=O)c2C#N)CC1 |  | > 100 |  | > 100 |  |  |  | > 100 |  |  |  | > 100 |  | > 100 |  | > 100 |  | > 100 | > 100
10 | O=C(O)CC1(CC(=O)O)Nc2ccccc2SC1=O |  | > 100 |  | > 100 |  | > 100 |  | > 100 |  | > 100 |  | > 100 |  | > 100 |  | > 100 |  | > 100 | > 100
11 | Cc1ccc(Nc2nc(NS(=O)(=O)c3cc(C(=O)Nc4ccc(Cl)cc4)c(Cl)cc3S)n[nH]2)cc1 |  | > 100 |  | > 100 |  | > 100 |  | > 100 |  | > 100 |  | > 100 |  | > 100 |  | > 100 |  | > 100 | > 100
12 | CC(CCC(=O)O)C1CCC2C3C(O)CC4CC(O)CCC4(C)C3CC(O)C12C (configuration not stated) |  | > 100 |  | > 100 |  | > 100 |  | > 100 |  | > 100 |  | > 100 |  | > 100 |  | > 100 |  | > 100 | > 100
13 | CC1OC1C(=O)C1(O)C(C)C(O)C23OC2(C(O)c2c(O)cccc2C3=O)C1O (configuration not stated) |  | 0.343 |  | 0.534 |  | 0.732 |  | 0.541 |  | 0.646 |  | 0.223 |  | 0.629 |  | 0.775 |  | 0.565 | 0.703
14 | COC1=CC(=O)c2c(O)c3c(c(O)c2C1=O)C=C(C)OC3O (configuration not stated) |  | 2.08 |  | 0.66 |  | 3.76 |  | 20.2 |  | 1.85 |  | 0.746 |  | 2.7 |  | 5.57 |  | 3.18 | 2.3
15 | O=C(NN1C(=O)CSC1c1ccc(C(F)(F)F)cc1)c1ccncc1 (configuration not stated) |  | > 100 |  | > 100 |  | > 100 |  | > 100 |  | > 100 |  |  |  | > 100 |  | > 100 |  | > 100 | > 100
16 | CCOP(=O)(CN=C(c1ccccc1)c1ccccc1)OCC |  | > 100 |  | > 100 |  | > 100 |  |  |  |  |  | > 100 |  | > 100 |  | > 100 |  | > 100 | > 100
